Drawing on US20250074901A1, “NOVEL HETEROARYL COMPOUNDS” (ICAGEN, LLC, priority 2021, published 2025), this text covers Emax and EC50 for 34 compounds.

Molecules are shown by their SMILES.

The target in this assay is T1, Kv7.2 (Homo sapiens, UniProt O43526).
T1 construct: expressed in transfected cells
Nature of the assay: Activation of Kv7.2 (in vitro assay, concentration response curve). It is filed as cell-based. The conditions noted are these: for Emax: Kv7.2 activation max %; for EC50: activation of Kv7.2. In short, it runs like this: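 EC50 is the half-maximal effective concentration, relative to the Emax observed for each compound in this in vitro assay. It was derived from concentration–response curves of the agonistic effect measured over a series of concentrations.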

As for `O=C(NC(CCO)c1ccnc(OC(F)F)c1)N[C@H]1C[C@H](C(F)(F)F)C1` (some centres unmarked) [Example 117, 1-[1-[2-(difluoromethoxy)pyridin-4-yl]-3-hydroxypropyl]-3-[(1r,3r)-3-(trifluoromethyl)cyclobutyl]urea], the Emax (commonly the greatest response seen or fitted, relative to the assay's reference) was determined as 94% and a half-maximal response (EC50) required 1900 nM.
Taken in the same sequence, the figures for `COC(CNC(=O)NCc1ccnc(OC(F)F)c1)C(F)(F)F` (centres unmarked) [Example 119, 1-[[2-(difluoromethoxy)pyridin-4-yl]methyl]-3-(3,3,3-trifluoro-2-methoxypropyl)urea] were 41% and 1600 nM.
`CC(F)(F)COc1cc(CNC(=O)N[C@H]2C[C@H](C(F)(F)F)C2)ccn1` [Example 121, 1-[[2-(2,2-difluoropropoxy)pyridin-4-yl]methyl]-3-[(1r,3r)-3-(trifluoromethyl)cyclobutyl]urea]: the Emax was found to be 62% and the EC50 (commonly the concentration that produces a half-maximal response) was 120 nM.
For `CC(F)(F)COc1cc(CNC(=O)NC23CCC(F)(CC2)CC3)ccn1` [Example 122, 1-[[2-(2,2-difluoropropoxy)pyridin-4-yl]methyl]-3-(4-fluoro-1-bicyclo[2.2.2]octanyl)urea], in that order: 61% and 190 nM.
`[2H]C([2H])(NC(=O)NCc1ccnc(OC(F)F)c1)C1CCC1` [Example 125, 1-[cyclobutyl(dideuterio)methyl]-3-[[2-(difluoromethoxy)pyridin-4-yl]methyl]urea] had an Emax of 62% and an EC50 of 750 nM.
Taken in the same sequence, the figures for `Cc1cccc(NC(=O)NCc2ccnc(OC(F)F)c2)c1` [Example 126, 1-[[2-(difluoromethoxy)pyridin-4-yl]methyl]-3-(3-methylphenyl)urea] were 50% and 650 nM.
With `COc1cc(CNC(=O)N[C@H]2C[C@H](C(F)(F)F)C2)ccn1` [Example 128, 1-[(2-methoxypyridin-4-yl)methyl]-3-[(1r,3r)-3-(trifluoromethyl)cyclobutyl]urea], the maximum response (Emax) came out at 75% and the EC50 worked out at 5360 nM.
For the compound `COc1cc(CNC(=O)NC23CCC(F)(CC2)CC3)ccn1` [Example 129, 1-(4-fluoro-1-bicyclo[2.2.2]octanyl)-3-[(2-methoxypyridin-4-yl)methyl]urea], the Emax stood at 53% and the EC50 came out at 4970 nM.
In turn, `O=C(NCc1ccnc(OC(F)F)c1)NC12CCC(CC1)CC2` [Example 131, 1-(1-bicyclo[2.2.2]octanyl)-3-[[2-(difluoromethoxy)pyridin-4-yl]methyl]urea] had an Emax of 61% and an EC50 of 170 nM.
For `O=C(NCc1ccnc(OC(F)F)c1)Nc1cccc(CF)c1` [Example 132, 1-[[2-(difluoromethoxy)pyridin-4-yl]methyl]-3-[3-(fluoromethyl)phenyl]urea], in that order: 43% and 1070 nM.
Compound `O=C(NCc1ccnc(OC(F)F)c1)N[C@@H]1CC[C@@H]2[C@H]1C2(F)F` [Example 133, 1-[(1R,2R,5R)-6,6-difluoro-2-bicyclo[3.1.0]hexanyl]-3-[[2-(difluoromethoxy)pyridin-4-yl]methyl]urea] showed an Emax of 62% and an EC50 of 600 nM.
For `O=C(NCc1ccnc(OC(F)F)c1)N[C@H](C1CC1)C(F)(F)F` [Example 134, 1-[(1R)-1-cyclopropyl-2,2,2-trifluoroethyl]-3-[[2-(difluoromethoxy)pyridin-4-yl]methyl]urea], in that order: 43% and 550 nM.
`O=C(NCc1ccnc(OC(F)F)c1)N[C@@H](C1CC1)C(F)(F)F` [Example 135, 1-[(1S)-1-cyclopropyl-2,2,2-trifluoroethyl]-3-[[2-(difluoromethoxy)pyridin-4-yl]methyl]urea] yielded an Emax of 68% and an EC50 of 1110 nM.
For `O=C(NCc1ccnc(OC(F)F)c1)N[C@H]1C[C@H](C(F)F)C1` [Example 136, 1-[[2-(difluoromethoxy)pyridin-4-yl]methyl]-3-[(1r,3r)-3-(difluoromethyl)cyclobutyl]urea], in that order: 50% and 280 nM.
Taken in the same sequence, the figures for `O=C(NCc1ccnc(OC(F)F)c1)N[C@H]1C[C@@H](C(F)F)C1` [Example 137, 1-[[2-(difluoromethoxy)pyridin-4-yl]methyl]-3-[(1s,3s)-3-(difluoromethyl)cyclobutyl]urea] were 48% and 2410 nM.
Taken in the same sequence, the figures for `O=C(NCc1ccnc(OC(F)F)c1)N[C@H]1CCCC(F)(F)C1` [Example 140, 1-[(1S)-3,3-difluorocyclohexyl]-3-[[2-(difluoromethoxy)pyridin-4-yl]methyl]urea] were 42% and 100 nM.
The compound `CC1(NC(=O)NCc2ccnc(OC(F)F)c2)CCC(F)(F)C1` (centres unmarked) [Example 142, 1-[[2-(difluoromethoxy)pyridin-4-yl]methyl]-3-(3,3-difluoro-1-methylcyclopentyl)urea] returned an Emax of 40% and an EC50 of 1030 nM.
For `CC1(NC(=O)NCc2ccnc(OC(F)F)c2)CCC(F)(F)CC1` [Example 143, 1-[[2-(difluoromethoxy)pyridin-4-yl]methyl]-3-(4,4-difluoro-1-methylcyclohexyl)urea], in that order: 40% and 1050 nM.
In turn, `O=C(NCc1ccnc(OC(F)F)c1)N[C@H]1CC[C@@H](C(F)(F)F)C1` [Example 144, 1-[[2-(difluoromethoxy)pyridin-4-yl]methyl]-3-[(1S,3R)-3-(trifluoromethyl)cyclopentyl]urea] displayed a maximal response (Emax) of 48% and an EC50 of 220 nM.
In turn, `O=C(Nc1cccc(Cl)c1)N[C@@H](CO)c1ccnc(OCC(F)(F)F)c1` [Example 145, 1-(3-chlorophenyl)-3-[(1R)-2-hydroxy-1-[2-(2,2,2-trifluoroethoxy)pyridin-4-yl]ethyl]urea] gave an Emax of 58% and an EC50 of 80 nM.
For `O=C(NCc1ccnc(OC(F)F)c1)N[C@@H]1CC[C@H](C(F)(F)F)C1` [Example 146, 1-[[2-(difluoromethoxy)pyridin-4-yl]methyl]-3-[(1R,3S)-3-(trifluoromethyl)cyclopentyl]urea], in that order: 68% and 160 nM.
For `O=C(NCc1ccnc(OC(F)F)c1)NC1CCCCC1(O)C(F)(F)F` (centres unmarked) [Example 147, 1-[[2-(difluoromethoxy)pyridin-4-yl]methyl]-3-[2-hydroxy-2-(trifluoromethyl)cyclohexyl]urea], in that order: 56% and 540 nM.
Taken in the same sequence, the figures for `O=C(NCc1ccnc(OC(F)F)c1)N[C@@H]1CCCC(F)(F)C1` [Example 149, 1-[(1R)-3,3-difluorocyclohexyl]-3-[[2-(difluoromethoxy)pyridin-4-yl]methyl]urea] were 43% and 240 nM.
In turn, `O=C(Nc1cccc(Cl)c1F)NC(CO)c1ccnc(OCC(F)(F)F)c1` (centres unmarked) [Example 150, 1-(3-chloro-2-fluorophenyl)-3-[2-hydroxy-1-[2-(2,2,2-trifluoroethoxy)pyridin-4-yl]ethyl]urea] returned an Emax of 73% and an EC50 of 80 nM.
For `C[C@@H](F)COc1cc(CNC(=O)NC23CCC(F)(CC2)CC3)ccn1` [Example 151, 1-(4-fluoro-1-bicyclo[2.2.2]octanyl)-3-[[2-[(2R)-2-fluoropropoxy]pyridin-4-yl]methyl]urea], in that order: 42% and 650 nM.
Taken in the same sequence, the figures for `O=C(NCc1ccnc(OC(F)F)c1)NC(C1CCC1)C(F)(F)F` (centres unmarked) [Example 152, 1-(1-cyclobutyl-2,2,2-trifluoroethyl)-3-[[2-(difluoromethoxy)pyridin-4-yl]methyl]urea] were 64% and 140 nM.
`O=C(NCc1ccnc(C(F)(F)F)c1)NC12CC(F)(C1)C2` [Example 153, 1-(3-fluoro-1-bicyclo[1.1.1]pentanyl)-3-[[2-(trifluoromethyl)pyridin-4-yl]methyl]urea] returned an Emax of 41% and an EC50 of 7270 nM.
For `C[C@H](F)COc1cc(CNC(=O)NC23CCC(F)(CC2)CC3)ccn1` [Example 156, 1-(4-fluoro-1-bicyclo[2.2.2]octanyl)-3-[[2-[(2S)-2-fluoropropoxy]pyridin-4-yl]methyl]urea], in that order: 50% and 560 nM.
For `O=C(NCc1ccnc(OCC(F)(F)F)c1)NC1CC(F)(F)C1` [Example 157, 1-(3,3-difluorocyclobutyl)-3-[[2-(2,2,2-trifluoroethoxy)pyridin-4-yl]methyl]urea], in that order: 50% and 380 nM.
Taken in the same sequence, the figures for `O=C(NCc1ccnc(CC(F)(F)F)c1)NC12CC(F)(C1)C2` [Example 159, 1-(3-fluoro-1-bicyclo[1.1.1]pentanyl)-3-[[2-(2,2,2-trifluoroethyl)pyridin-4-yl]methyl]urea] were 67% and 5180 nM.
On to `CC(F)COc1cc(CNC(=O)NC23CC(F)(C2)C3)ccn1` (centres unmarked) [Example 160, 1-(3-fluoro-1-bicyclo[1.1.1]pentanyl)-3-[[2-(2-fluoropropoxy)pyridin-4-yl]methyl]urea], for which the maximal response (Emax) was 61% and the response was half-maximal at 6310 nM (EC50).
`O=C(NCc1ccnc(OC(F)F)c1)Nc1cncc(Cl)c1` [Example 161, 1-(5-chloropyridin-3-yl)-3-[[2-(difluoromethoxy)pyridin-4-yl]methyl]urea] gave an Emax of 43% and an EC50 of 1050 nM.
As to `O=C(NCc1ccnc(OCC(F)(F)F)c1)N[C@H]1C[C@H](F)C1` [Example 162, 1-((1r,3r)-3-fluorocyclobutyl)-3-[[2-(2,2,2-trifluoroethoxy)pyridin-4-yl]methyl]urea], the Emax came out at 50% and it took 190 nM to reach a half-maximal effect (EC50).
For `C[C@H]1C[C@H](NC(=O)NCc2ccnc(OC(F)F)c2)C1` [Example 163, 1-[[2-(difluoromethoxy)pyridin-4-yl]methyl]-3-((1r,3r)-3-methylcyclobutyl)urea], the Emax is 83% and the response was half-maximal at 240 nM (EC50).
